In ChEMBL document CHEMBL1140277, “Antibiotics GE23077, novel inhibitors of bacterial RNA polymerase. Part 3: Chemical derivatization” (Bioorg Med Chem Lett, 2005):
In brackets after ≈: the same amount, converted by molar mass. Numbered stars: 1 amine (or outer) side, 2 acyl side, 3 side chain; on linkers, the order of the positions; unused ones are H or OH. Square brackets hold non-standard residues; d marks the D form. Peptide text beside a SMILES is read from it. * marks the point of attachment. ξ: configuration not given here. ξGln(3,4-(OH)2) = NC(=O)C(O)C(O)C(N)C(=O)O; isoSer(2S) = O=C([C@@H](O)CN[*:1])[*:2]; ξAllylGly = C=CCC(N)C(=O)O; X1 = CC(NCc1ccccc1)C(=O)*; ξE = NC(CCC(=O)O)C(=O)O; Dap = NC[C@H](N)C(=O)O; X2 = C/C=C(/C)C(=O)*

Experiments:
[1] = Minimum inhibitory concentration against Moraxella catarrhalis using broth microdilution method; format: functional
[2] = Inhibitory concentration against RNA polymerase from Escherichia coli using cell freei transcription assay; format: functional

SMILES	MIC [1] [µg/mL]	IC50 [2] [µg/mL]
CCCCCCCCC(=O)NC(C)C(=O)NC[C@@H]1NC(=O)C(C(=O)O)NC(=O)[C@@H](O)CNC(=O)[C@H]([C@@H](C)O)NC(=O)C(C(O)C(O)C(N)=O)NC(=O)[C@H](C(C)C)NC(=O)[C@H](CO)NC1=O (some centres undefined)	256 (≈ 274 µM)	0.09 (≈ 0.0965 µM)
CC(NC(=O)Cc1ccc(-c2ccccc2)cc1)C(=O)NC[C@@H]1NC(=O)C(C(=O)O)NC(=O)[C@@H](O)CNC(=O)[C@H]([C@@H](C)O)NC(=O)C(C(O)C(O)C(N)=O)NC(=O)[C@H](C(C)C)NC(=O)[C@H](CO)NC1=O (some centres undefined)	> 512	0.22 (≈ 0.223 µM)
CC(=O)C(=O)NC[C@@H]1NC(=O)C(C(=O)O)NC(=O)[C@@H](O)CNC(=O)[C@H]([C@@H](C)O)NC(=O)C(C(O)C(O)C(N)=O)NC(=O)[C@H](C(C)C)NC(=O)[C@H](CO)NC1=O (some centres undefined)	8 (≈ 10.1 µM)	0.07 (≈ 0.0884 µM)
C/C=C(/C)C(=O)NC[C@@H]1NC(=O)C(C(=O)N(C)OC)NC(=O)[C@@H](O)CNC(=O)[C@H]([C@@H](C)O)NC(=O)C(C(O)C(O)C(N)=O)NC(=O)[C@H](C(C)C)NC(=O)[C@H](CO)NC1=O (some centres undefined)		0.4 (≈ 0.472 µM)
CC(NCc1cc(F)c(F)c(F)c1)C(=O)NC[C@@H]1NC(=O)C(C(=O)O)NC(=O)[C@@H](O)CNC(=O)[C@H]([C@@H](C)O)NC(=O)C(C(O)C(O)C(N)=O)NC(=O)[C@H](C(C)C)NC(=O)[C@H](CO)NC1=O (some centres undefined)	64 (≈ 68.3 µM)	0.06 (≈ 0.064 µM)
C/C=C(/C)C(=O)NC[C@@H]1NC(=O)C(C(=O)OC)NC(=O)[C@@H](O)CNC(=O)[C@H]([C@@H](C)O)NC(=O)C(C(O)C(O)CNC(=O)Cc2ccc(-c3ccccc3)cc2)NC(=O)[C@H](C(C)C)NC(=O)[C@H](CO)NC1=O (some centres undefined)	> 512	> 3.2
CC(NCC1CCCCC1)C(=O)NC[C@@H]1NC(=O)C(C(=O)O)NC(=O)[C@@H](O)CNC(=O)[C@H]([C@@H](C)O)NC(=O)C(C(O)C(O)C(N)=O)NC(=O)[C@H](C(C)C)NC(=O)[C@H](CO)NC1=O (some centres undefined)	16 (≈ 18 µM)	0.42 (≈ 0.472 µM)
C/C=C(/C)C(=O)NC[C@@H]1NC(=O)C(CCC(=O)O)NC(=O)[C@@H](O)CNC(=O)[C@H]([C@@H](C)O)NC(=O)C(C(O)C(O)C(N)=O)NC(=O)[C@H](C(C)C)NC(=O)[C@H](CO)NC1=O (stereo partly drawn) (cyclo([Dap](X2)SV[ξGln(3,4-(OH)2)]T[isoSer(2S)][ξE]))	8 (≈ 9.62 µM)	0.2 (≈ 0.24 µM)
CC(NCc1ccccc1)C(=O)NC[C@@H]1NC(=O)CNC(=O)[C@@H](O)CNC(=O)[C@H]([C@@H](C)O)NC(=O)C(C(O)C(O)C(N)=O)NC(=O)[C@H](C(C)C)NC(=O)[C@H](CO)NC1=O (stereo partly drawn) (cyclo([Dap](X1)SV[ξGln(3,4-(OH)2)]T[isoSer(2S)]G))	128 (≈ 153 µM)	1.05 (≈ 1.25 µM)
CC(NCc1ccc(C(F)(F)F)cc1)C(=O)NC[C@@H]1NC(=O)C(C(=O)O)NC(=O)[C@@H](O)CNC(=O)[C@H]([C@@H](C)O)NC(=O)C(C(O)C(O)C(N)=O)NC(=O)[C@H](C(C)C)NC(=O)[C@H](CO)NC1=O (some centres undefined)	256 (≈ 269 µM)	0.05 (≈ 0.0526 µM)
C=CCOC(=O)C1NC(=O)[C@@H](O)CNC(=O)[C@H]([C@@H](C)O)NC(=O)C(C(O)C(O)C(N)=O)NC(=O)[C@H](C(C)C)NC(=O)[C@H](CO)NC(=O)[C@H](CNC(=O)/C(C)=C\C)NC1=O (some centres undefined)		0.4 (≈ 0.474 µM)
CC(NCc1ccccc1)C(=O)NC[C@@H]1NC(=O)C(C(=O)O)NC(=O)[C@@H](O)CNC(=O)[C@H]([C@@H](C)O)NC(=O)C(C(O)C(O)C(N)=O)NC(=O)[C@H](C(C)C)NC(=O)[C@H](CO)NC1=O (some centres undefined)	32 (≈ 36.2 µM)	0.07 (≈ 0.0793 µM)
C/C=C(/C)C(=O)NC[C@@H]1NC(=O)C(C(=O)NC(Cc2ccc(O)cc2)C(=O)O)NC(=O)[C@@H](O)CNC(=O)[C@H]([C@@H](C)O)NC(=O)C(C(O)C(O)C(N)=O)NC(=O)[C@H](C(C)C)NC(=O)[C@H](CO)NC1=O (some centres undefined)	512 (≈ 529 µM)	
CC(N)C(=O)NC[C@@H]1NC(=O)C(C(=O)O)NC(=O)[C@@H](O)CNC(=O)[C@H]([C@@H](C)O)NC(=O)C(C(O)C(O)C(N)=O)NC(=O)[C@H](C(C)C)NC(=O)[C@H](CO)NC1=O (some centres undefined)	64 (≈ 80.7 µM)	0.28 (≈ 0.353 µM)
C/C=C(/C)C(=O)NC[C@@H]1NC(=O)[C@@H](C(=O)O)NC(=O)[C@@H](O)CNC(=O)[C@H]([C@@H](C)O)NC(=O)C(C(O)C(O)C(N)=O)NC(=O)[C@H](C(C)C)NC(=O)[C@H](CO)NC1=O (some centres undefined)	8 (≈ 9.95 µM)	0.03 (≈ 0.0373 µM)
C/C=C(/C)C(=O)NC[C@@H]1NC(=O)C(C(=O)OC)NC(=O)[C@@H](O)CNC(=O)[C@H]([C@@H](C)O)NC(=O)C(C(O)C(O)C(N)=O)NC(=O)[C@H](C(C)C)NC(=O)[C@H](CO)NC1=O (some centres undefined)	8 (≈ 9.78 µM)	0.15 (≈ 0.183 µM)

SMILES	MIC [1] [µg/mL]	IC50 [2] [µg/mL]
CCCCCCC(CCCC)C(=O)NC(C)C(=O)NC[C@@H]1NC(=O)C(C(=O)O)NC(=O)[C@@H](O)CNC(=O)[C@H]([C@@H](C)O)NC(=O)C(C(O)C(O)C(N)=O)NC(=O)[C@H](C(C)C)NC(=O)[C@H](CO)NC1=O (some centres undefined)	512 (≈ 525 µM)	0.13 (≈ 0.133 µM)
C/C=C(/C)C(=O)NC[C@@H]1NC(=O)C(C(=O)OC)NC(=O)[C@@H](O)CNC(=O)[C@H]([C@@H](C)O)NC(=O)C(C(O)C(O)CNC(=O)C(CCCC)CCCCCC)NC(=O)[C@H](C(C)C)NC(=O)[C@H](CO)NC1=O (some centres undefined)	> 512	> 3.2
C/C=C(/C)C(=O)NC[C@@H]1NC(=O)C(C(=O)N[C@@H](C)C(=O)N[C@@H](C)C(=O)OC)NC(=O)[C@@H](O)CNC(=O)[C@H]([C@@H](C)O)NC(=O)C(C(O)C(O)C(N)=O)NC(=O)[C@H](C(C)C)NC(=O)[C@H](CO)NC1=O (some centres undefined)	64 (≈ 66.7 µM)	> 3.2
C/C=C(/C)C(=O)NC[C@@H]1NC(=O)C(C(=O)NCc2ccccc2)NC(=O)[C@@H](O)CNC(=O)[C@H]([C@@H](C)O)NC(=O)C(C(O)C(O)C(N)=O)NC(=O)[C@H](C(C)C)NC(=O)[C@H](CO)NC1=O (some centres undefined)	128 (≈ 143 µM)	0.3 (≈ 0.336 µM)
C=CCC1NC(=O)[C@@H](O)CNC(=O)[C@H]([C@@H](C)O)NC(=O)C(C(O)C(O)C(N)=O)NC(=O)[C@H](C(C)C)NC(=O)[C@H](CO)NC(=O)[C@H](CNC(=O)/C(C)=C\C)NC1=O (stereo partly drawn) (cyclo([Dap](X2)SV[ξGln(3,4-(OH)2)]T[isoSer(2S)][ξAllylGly]))	32 (≈ 40 µM)	2.24 (≈ 2.8 µM)
C/C=C(/C)C(=O)NC[C@@H]1NC(=O)C(C(=O)OCC)NC(=O)[C@@H](O)CNC(=O)[C@H]([C@@H](C)O)NC(=O)C(C(O)C(O)C(N)=O)NC(=O)[C@H](C(C)C)NC(=O)[C@H](CO)NC1=O (some centres undefined)	64 (≈ 76.9 µM)	0.1 (≈ 0.12 µM)
C/C=C(/C)C(=O)NC[C@@H]1NC(=O)C(C(=O)OC)NC(=O)[C@@H](O)CNC(=O)[C@H]([C@@H](C)O)NC(=O)C(C(O)C(O)CNC(=O)/C=C/c2ccccc2)NC(=O)[C@H](C(C)C)NC(=O)[C@H](CO)NC1=O (some centres undefined)	> 512	> 3.2
CC(NC(=O)/C=C/c1ccccc1)C(=O)NC[C@@H]1NC(=O)C(C(=O)O)NC(=O)[C@@H](O)CNC(=O)[C@H]([C@@H](C)O)NC(=O)C(C(O)C(O)C(N)=O)NC(=O)[C@H](C(C)C)NC(=O)[C@H](CO)NC1=O (some centres undefined)	128 (≈ 139 µM)	0.08 (≈ 0.0867 µM)
CC(O)C(=O)NC[C@@H]1NC(=O)C(C(=O)O)NC(=O)[C@@H](O)CNC(=O)[C@H]([C@@H](C)O)NC(=O)C(C(O)C(O)C(N)=O)NC(=O)[C@H](C(C)C)NC(=O)[C@H](CO)NC1=O (some centres undefined)	64 (≈ 80.6 µM)	0.11 (≈ 0.139 µM)
CC(NCC(F)(F)F)C(=O)NC[C@@H]1NC(=O)C(C(=O)O)NC(=O)[C@@H](O)CNC(=O)[C@H]([C@@H](C)O)NC(=O)C(C(O)C(O)C(N)=O)NC(=O)[C@H](C(C)C)NC(=O)[C@H](CO)NC1=O (some centres undefined)	> 512	0.17 (≈ 0.194 µM)
C/C=C(/C)C(=O)NC[C@@H]1NC(=O)CNC(=O)[C@@H](O)CNC(=O)[C@H]([C@@H](C)O)NC(=O)C(C(O)C(O)C(N)=O)NC(=O)[C@H](C(C)C)NC(=O)[C@H](CO)NC1=O (stereo partly drawn) (cyclo([Dap](X2)SV[ξGln(3,4-(OH)2)]T[isoSer(2S)]G))	16 (≈ 21.1 µM)	0.65 (≈ 0.856 µM)
C/C=C(/C)C(=O)NC[C@@H]1NC(=O)C(C(=O)OC)NC(=O)[C@@H](O)CNC(=O)[C@H]([C@@H](C)O)NC(=O)C(C(O)C(O)CN)NC(=O)[C@H](C(C)C)NC(=O)[C@H](CO)NC1=O (some centres undefined)	32 (≈ 39.8 µM)	3.14 (≈ 3.91 µM)
CCCCCCCCc1ccc(C(=O)NC(C)C(=O)NC[C@@H]2NC(=O)C(C(=O)O)NC(=O)[C@@H](O)CNC(=O)[C@H]([C@@H](C)O)NC(=O)C(C(O)C(O)C(N)=O)NC(=O)[C@H](C(C)C)NC(=O)[C@H](CO)NC2=O)cc1 (some centres undefined)	> 512	0.07 (≈ 0.0694 µM)
CCCCCCCCCCCCCCCCCC(=O)NC(C)C(=O)NC[C@@H]1NC(=O)[C@@H](C(=O)O)NC(=O)[C@@H](O)CNC(=O)[C@H]([C@@H](C)O)NC(=O)C(C(O)C(O)C(N)=O)NC(=O)[C@H](C(C)C)NC(=O)[C@H](CO)NC1=O (some centres undefined)	> 512	0.57 (≈ 0.538 µM)
CC(NCc1cc(C(F)(F)F)cc(C(F)(F)F)c1)C(=O)NC[C@@H]1NC(=O)C(C(=O)O)NC(=O)[C@@H](O)CNC(=O)[C@H]([C@@H](C)O)NC(=O)C(C(O)C(O)C(N)=O)NC(=O)[C@H](C(C)C)NC(=O)[C@H](CO)NC1=O (some centres undefined)	512 (≈ 503 µM)	0.24 (≈ 0.236 µM)
